This test has as its target T1, estrogen receptor (Homo sapiens, UniProt P03372).
T1 construct: endogenous in cells; host or cells: ECC-1 cells
T1 sequence (P03372 1-595): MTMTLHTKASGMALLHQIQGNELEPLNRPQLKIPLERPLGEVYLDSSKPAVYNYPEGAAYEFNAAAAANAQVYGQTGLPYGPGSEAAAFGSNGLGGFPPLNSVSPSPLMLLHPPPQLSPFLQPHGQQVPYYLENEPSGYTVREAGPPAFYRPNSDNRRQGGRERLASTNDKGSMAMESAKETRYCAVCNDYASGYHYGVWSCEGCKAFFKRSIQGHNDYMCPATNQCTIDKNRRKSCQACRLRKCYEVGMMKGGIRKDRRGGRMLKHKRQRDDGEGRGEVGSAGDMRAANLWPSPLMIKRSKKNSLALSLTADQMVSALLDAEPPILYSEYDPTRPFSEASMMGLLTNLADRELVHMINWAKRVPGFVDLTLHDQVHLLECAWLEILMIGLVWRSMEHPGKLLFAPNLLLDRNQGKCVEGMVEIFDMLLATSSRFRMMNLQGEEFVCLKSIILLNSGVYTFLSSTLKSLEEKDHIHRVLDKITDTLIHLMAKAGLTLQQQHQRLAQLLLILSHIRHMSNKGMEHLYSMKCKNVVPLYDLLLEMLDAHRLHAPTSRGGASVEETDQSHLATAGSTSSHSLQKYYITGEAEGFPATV
As to the kind of experiment: AP assay (alkaline phosphatase activity in ECC-1 cells), agonist mode (absence of E2) and antagonist mode (presence of 500 pM E2). In kind it is cell-based. The following applies: 3 days, AP activity normalized to 500 pM E2 alone, agonist and antagonist mode combined. In short, it runs like this:
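ECC-1 cells in hormone-depleted medium treated with compounds for 3 days, without E2 (agonist mode) or with 500 pM E2 (antagonist mode). AP activity read at 405 nm after p-nitrophenyl phosphate substrate, 40 min at 42 °C. Signal normalized to 500 pM E2 alone.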

Regarding `C[C@@H]1Cc2c([nH]c3ccccc23)[C@@H](c2cc3[nH]c(C(=O)O)cc3s2)N1CC(C)(C)F.N` [Compound I-65, ammonium; 2-[(1S,3R)-2-(2-fluoro-2-methyl-propyl)-3-methyl-1,3,4,9-tetrahydropyrido[3,4-b]indol-1-yl]-4H-thieno[3,2-b]pyrrole-5-carboxylate], the “Activity (estrogen receptor modulation, e.g., agonism and antagonism)” value (“Activity” for short) was “++ (estrogen receptor antagonism having (i) between 10% and 80% increase in the E2-normalized signal in the AP assay (agonist mode) and (ii) between 10% and 80% reduction in the E2-normalized signal in the AP assay (antagonist mode))”.
Take `CC1CN(Cc2cc3sc([C@@H]4c5[nH]c6ccccc6c5C[C@@H](C)N4CC(C)(C)F)cc3[nH]2)C1` [Compound I-66, 2-[(1S,3R)-2-(2-fluoro-2-methyl-propyl)-3-methyl-1,3,4,9-tetrahydropyrido[3,4-b]indol-1-yl]-5-[(3-methylazetidin-1-yl)methyl]-4H-thieno[3,2-b]pyrrole]: the “Activity” value is “+ (estrogen receptor agonism having (i) at least 80% increase in the E2-normalized signal in the AP assay (agonist mode) and (ii) no more than 80% reduction in the E2-normalized signal in the AP assay (antagonist mode))”.
Next, `C[C@@H]1Cc2c([nH]c3ccccc23)[C@@H](c2cc3[nH]c(CNCCCF)cc3s2)N1CC(C)(C)F` [Compound I-67, 3-fluoro-N-[[2-[(1S,3R)-2-(2-fluoro-2-methyl-propyl)-3-methyl-1,3,4,9-tetrahydropyrido[3,4-b]indol-1-yl]-4H-thieno[3,2-b]pyrrol-5-yl]methyl]propan-1-amine]: “+ (estrogen receptor agonism having (i) at least 80% increase in the E2-normalized signal in the AP assay (agonist mode) and (ii) no more than 80% reduction in the E2-normalized signal in the AP assay (antagonist mode))”; `CC[C@H]1CCN(Cc2cc3sc([C@@H]4c5[nH]c6ccccc6c5C[C@@H](C)N4CC(C)(C)F)cc3[nH]2)C1` [Compound I-68, 5-[[(3S)-3-ethylpyrrolidin-1-yl]methyl]-2-[(1S,3R)-2-(2-fluoro-2-methyl-propyl)-3-methyl-1,3,4,9-tetrahydropyrido[3,4-b]indol-1-yl]-4H-thieno[3,2-b]pyrrole]: “+ (estrogen receptor agonism having (i) at least 80% increase in the E2-normalized signal in the AP assay (agonist mode) and (ii) no more than 80% reduction in the E2-normalized signal in the AP assay (antagonist mode))”.
As to `C[C@@H]1Cc2c([nH]c3ccccc23)[C@@H](c2cnc3[nH]c(CN4CC(CF)C4)cc3c2)N1CC(C)(C)F` [Compound I-69, (1R,3R)-1-[2-[[3-(fluoromethyl)azetidin-1-yl]methyl]-1H-pyrrolo[2,3-b]pyridin-5-yl]-2-(2-fluoro-2-methyl-propyl)-3-methyl-1,3,4,9-tetrahydropyrido[3,4-b]indole], the “Activity” value was “++ (estrogen receptor antagonism having (i) between 10% and 80% increase in the E2-normalized signal in the AP assay (agonist mode) and (ii) between 10% and 80% reduction in the E2-normalized signal in the AP assay (antagonist mode))”.
Next, `C[C@@H]1Cc2c([nH]c3ccccc23)[C@@H](c2ccc3[nH]c(CN4CC(CF)C4)cc3n2)N1CC(C)(C)F` [Compound I-70, (1S,3R)-1-[2-[[3-(fluoromethyl)azetidin-1-yl]methyl]-1H-pyrrolo[3,2-b]pyridin-5-yl]-2-(2-fluoro-2-methyl-propyl)-3-methyl-1,3,4,9-tetrahydropyrido[3,4-b]indole]: “+ (estrogen receptor agonism having (i) at least 80% increase in the E2-normalized signal in the AP assay (agonist mode) and (ii) no more than 80% reduction in the E2-normalized signal in the AP assay (antagonist mode))”.
Next, `CC1CN(Cc2nc3cc([C@@H]4c5[nH]c6ccccc6c5C[C@@H](C)N4CC(C)(C)F)ccc3[nH]2)C1` [Compound I-71, (1R,3R)-2-(2-fluoro-2-methyl-propyl)-3-methyl-1-[2-[(3-methylazetidin-1-yl)methyl]-3H-benzimidazol-5-yl]-1,3,4,9-tetrahydropyrido[3,4-b]indole]: “++ (estrogen receptor antagonism having (i) between 10% and 80% increase in the E2-normalized signal in the AP assay (agonist mode) and (ii) between 10% and 80% reduction in the E2-normalized signal in the AP assay (antagonist mode))”; `C[C@@H]1Cc2c([nH]c3ccccc23)[C@@H](c2ccc3nc(CN4CC(CF)C4)oc3c2)N1CC(C)(C)F` [Compound I-72, 2-[[3-(fluoromethyl)azetidin-1-yl]methyl]-6-[(1R,3R)-2-(2-fluoro-2-methyl-propyl)-3-methyl-1,3,4,9-tetrahydropyrido[3,4-b]indol-1-yl]-1,3-benzoxazole]: “+ (estrogen receptor agonism having (i) at least 80% increase in the E2-normalized signal in the AP assay (agonist mode) and (ii) no more than 80% reduction in the E2-normalized signal in the AP assay (antagonist mode))”; `C[C@@H]1Cc2c([nH]c3ccccc23)[C@@H](c2ccc3nc(CN4CC(CF)C4)cn3c2)N1CC(C)(C)F` [Compound I-73, (1R,3R)-1-[2-[[3-(fluoromethyl)azetidin-1-yl]methyl]imidazo[1,2-a]pyridin-6-yl]-2-(2-fluoro-2-methyl-propyl)-3-methyl-1,3,4,9-tetrahydropyrido[3,4-b]indole]: “+ (estrogen receptor agonism having (i) at least 80% increase in the E2-normalized signal in the AP assay (agonist mode) and (ii) no more than 80% reduction in the E2-normalized signal in the AP assay (antagonist mode))”.
Under `C[C@@H]1Cc2c([nH]c3ccccc23)[C@@H](c2ccn3cc(CN4CC(CF)C4)nc3c2)N1CC(C)(C)F` [Compound I-74, (1R,3R)-1-[2-[[3-(fluoromethyl)azetidin-1-yl]methyl]imidazo[1,2-a]pyridin-7-yl]-2-(2-fluoro-2-methyl-propyl)-3-methyl-1,3,4,9-tetrahydropyrido[3,4-b]indole] stands “+++ (estrogen receptor antagonism (i) with pIC50 greater than 7.5 and at least a 10% reduction in the E2-normalized signal in the AP assay (antagonist mode); and (ii) no more than 10% increase in E2-normalized signal in the AP assay (agonist mode))”; under `C[C@@H]1Cc2c([nH]c3ccccc23)[C@@H](c2ccc3oc(CN4CC(CF)C4)nc3c2)N1CC(C)(C)F` [Compound I-75, 2-[[3-(fluoromethyl)azetidin-1-yl]methyl]-5-[(1R,3R)-2-(2-fluoro-2-methyl-propyl)-3-methyl-1,3,4,9-tetrahydropyrido[3,4-b]indol-1-yl]-1,3-benzoxazole], “+++ (estrogen receptor antagonism (i) with pIC50 greater than 7.5 and at least a 10% reduction in the E2-normalized signal in the AP assay (antagonist mode); and (ii) no more than 10% increase in E2-normalized signal in the AP assay (agonist mode))”.
Take `CC1CN(Cc2nc3cc([C@@H]4c5[nH]c6ccccc6c5C[C@@H](C)N4CC(C)(C)F)ccc3o2)C1` [Compound I-76, 5-[(1R,3R)-2-(2-fluoro-2-methyl-propyl)-3-methyl-1,3,4,9-tetrahydropyrido[3,4-b]indol-1-yl]-2-[(3-methylazetidin-1-yl)methyl]-1,3-benzoxazole]: the “Activity” value was “+++ (estrogen receptor antagonism (i) with pIC50 greater than 7.5 and at least a 10% reduction in the E2-normalized signal in the AP assay (antagonist mode); and (ii) no more than 10% increase in E2-normalized signal in the AP assay (agonist mode))”.
`C[C@@H]1Cc2c([nH]c3ccccc23)[C@@H](c2ccc3oc(CN4CC5(CCC5)C4)nc3c2)N1CC(C)(C)F` [Compound I-77, 2-(2-azaspiro[3.3]heptan-2-ylmethyl)-5-[(1R,3R)-2-(2-fluoro-2-methyl-propyl)-3-methyl-1,3,4,9-tetrahydropyrido[3,4-b]indol-1-yl]-1,3-benzoxazole]: the “Activity” value is “+++ (estrogen receptor antagonism (i) with pIC50 greater than 7.5 and at least a 10% reduction in the E2-normalized signal in the AP assay (antagonist mode); and (ii) no more than 10% increase in E2-normalized signal in the AP assay (agonist mode))”.
Under `C[C@@H]1Cc2c([nH]c3ccccc23)[C@@H](c2cc3nc(CN4CC(CF)C4)oc3cc2F)N1CC(C)(C)F` [Compound I-78, 6-fluoro-2-[[3-(fluoromethyl)azetidin-1-yl]methyl]-5-[(1R,3R)-2-(2-fluoro-2-methyl-propyl)-3-methyl-1,3,4,9-tetrahydropyrido[3,4-b]indol-1-yl]-1,3-benzoxazole] stands “+ (estrogen receptor agonism having (i) at least 80% increase in the E2-normalized signal in the AP assay (agonist mode) and (ii) no more than 80% reduction in the E2-normalized signal in the AP assay (antagonist mode))”.

The record behind these values is patent US20260355165A1, “2,3,4,9-TETRAHYDRO-1H-PYRIDO[3,4-B]INDOLE DERIVATIVES AS ESTROGEN RECEPTOR MODULATORS FOR THE TREATMENT OF CANCER” (Olema Pharmaceuticals, Inc., priority 2022, published 2026).
